Assay results: ChEMBL document CHEMBL1142751, “Synthesis and biological activity of mustard derivatives of combretastatins” (Bioorg Med Chem Lett, 2005)

Test system: SH-SY5Y
Test: Inhibitory concentration against Human SH-SY5Y neuroblastoma cells
Format: functional, cell-based

Row | Compound | IC50
1 | COc1ccc(/C=C\c2cc(OC)c(OC)c(OC)c2)cc1N(CCCl)CCCl | 860 nM
2 | COc1ccc(/C=C\c2cc(OC)c(OC)c(OC)c2)cc1OC(=O)CCCc1ccc(N(CCCl)CCCl)cc1 | 0.64 nM
3 | COc1ccc(/C=C\c2cc(OC)c(OC)c(OC)c2)cc1N(CCO)CCO | > 10000 nM
4 | COc1ccc(/C=C\c2cc(OC)c(OC)c(OC)c2)cc1O [COMBRETASTATIN A4] | 1.5 nM
5 | COc1ccc(/C=C\c2cc(OC)c(OC)c(OC)c2)cc1OCCN(CCCl)CCCl | 230 nM
